Laboratory results: patent publication US20110281896A1, “OPTICALLY PURE QUINAZOLINE COMPOUNDS” (Jiangsu Hansoh Pharmaceutical Co. Ltd, priority 2009, published 2011)

Legend:
A431 = experiment: Antitumor activity in vitro, SRB cell proliferation inhibition; type: cell-based; details: 72 h incubation, Logit method
Procedure: (§1) Evaluation of Antitumor Activity In Vitro
(§2) Cell Strains: A431; MCF-7
(§3) Experiment Design: Cells were incubated with different concentrations of compounds for 72 hours. The inhibition of cell proliferation by the compounds was evaluated by SRB, followed by calculation of the inhibition rate. Then, value of IC50 was calculated by using-Logit method base on the inhibition rate and used to compare in vitro antitumor activity of the compounds.
(§4) Method for Calculating the Inhibition Rate: Inhibition rate (%)=(OD value of control group−OD value of drug group)/OD value of control group×100%

MCF-7 = experiment: as above; type: cell-based; details: 72 h incubation, Logit method
Procedure: as §1, §2, §3, §4

[1] = system: human lung cancer Calu-3 xenografts; experiment: Effect on xenografts in nude mice with lung cancer Calu-3; type: in vivo, BALB/cA-nude mice; details: for Initial Tumor Volume (mm^3) D0: D0 = time of first administration (baseline); for Initial Tumor Volume (mm^3) D0 / Final Tumor Inhibition Rate (%) D16 / % T/C D16 / Relative Tumor Volume D16 / Final Tumor Volume (mm^3) D16 / The Recession/Group / inhibition of growth of human lung cancer Calu-3 (in words): PO QD × 17; for Initial Tumor Volume (mm^3) D0 / Final Tumor Inhibition Rate (%) D16 / % T/C D16 / Relative Tumor Volume D16 / Final Tumor Volume (mm^3) D16 / The Recession/Group: 146.5-146.7 mg/kg; for Initial Tumor Volume (mm^3) D0 / Relative Tumor Volume D16 / Final Tumor Volume (mm^3) D16: mean; for % T/C D16: C = mean tumor volume of drug, control group; for Final Tumor Volume (mm^3) D16: D16 = 17th day after administration; for The Recession/Group: number of mice per group of 6
Procedure: Effect of compound 97(±), compound 97, compound 110 and Lapatinib (positive control) on xenografts in nude mice with lung cancer Calu-3 Remark: “±” means the compound is racemic.
The purpose of the experiment is to evaluate and compare the effect of compound 97(±), compound 97, compound 110, Lapatinib on xenografts in nude mice with lung cancer Calu-3.
BALB/cA-nude mice, 6-7 weeks, ♀, purchased from ShangHai Slac laboratory animal Co., Ltd.
Calu-3 cells were injected subcutaneously into nude mice. Animals were divided into groups (d0) randomly after tumors have grown to 150-300 mm^3. Dosage and dosage regimen design can be seen in table 1. Tumors volume was measured 2-3 times per week. Mice were weighed and data were recorded. Calculation formula for tumor volume (V) is as below:
V=½×a×b^2, wherein, a and b represent length and width respectively.

[2] = Homo sapiens, A-431, A431 cells
[3] = Homo sapiens, MCF7, MCF-7 cells
[4] = xenografts in nude mice, PO QD × 17, 146.7 mg/kg

Row | SMILES | IC50 (A431; [2]) [nM] | IC50 (MCF-7; [3]) [µM] | IC50 (A431; A431 cells) [nM] | IC50 (MCF-7; MCF-7 cells) [µM] | also measured
1 | CN(C)[C@H](CS(C)(=O)=O)c1ccc(-c2ccc3ncnc(Nc4ccc(OCc5cccc(F)c5)c(Cl)c4)c3c2)o1 [Compound 97, (S)—N-(4-(3-fluorobenzyloxy)-3-chlorophenyl)-6-(5-(1-(N,N-dimethyl-amino)-2-(methylsulfonyl)ethyl)furan-2-yl)quinazolin-4-amine] | 734 | 6.67 |  |  | Initial Tumor Volume (mm^3) D0 [1]: 291.2 mm^3; Final Tumor Inhibition Rate (%) D16 [1]: 44%; % T/C D16 [1]: 56%; Relative Tumor Volume D16 [1]: 1.9; Final Tumor Volume (mm^3) D16 [1]: 525.4 mm^3; The Recession/Group [1]: 0; inhibition of growth of human lung cancer Calu-3 (in words) ([1]; xenografts in nude mice): inhibited the growth of human lung cancer Calu-3 significantly
2 | CN(C)[C@@H](CS(C)(=O)=O)c1ccc(-c2ccc3ncnc(Nc4ccc(OCc5cccc(F)c5)c(Cl)c4)c3c2)o1 [Compound 110, (R)—N-(4-(3-fluorobenzyl-oxy)-3-chlorophenyl)-6-(5-(1-(N,N-dimethyl-amino)-2-(methylsulfonyl)ethyl)-2-yl)quinazolin-4-amine] |  |  | 768 | 5.67 | Initial Tumor Volume (mm^3) D0 [1]: 249.1 mm^3; Final Tumor Inhibition Rate (%) D16 [1]: 77%; % T/C D16 [1]: 23%; Relative Tumor Volume D16 [1]: 0.8; Final Tumor Volume (mm^3) D16 [1]: 187.4 mm^3; The Recession/Group [1]: 1; inhibition of growth of human lung cancer Calu-3 (in words) ([1]; xenografts in nude mice): inhibited the growth of human lung cancer Calu-3 significantly; fraction of the tumors in mice caused to shrink [1, 4]: ⅚; number of mice with tumor shrinking more than 50% in volume [1, 4]: one
3 | CCCN[C@H](CS(C)(=O)=O)c1ccc(-c2ccc3ncnc(Nc4ccc5c(cnn5Cc5cccc(F)c5)c4)c3c2)o1 [Compound 147, (S)—N-(1-(3-fluorobenzyl)-1H-indazol-5-yl)-6-(5-(1-(propylamino)-2-(methylsulfonyl)ethyl)furan-2-yl)quinazolin-4-amine] | 406 | 8.01 |  |  | 
4 | CN(C1CC1)[C@H](CS(C)(=O)=O)c1ccc(-c2ccc3ncnc(Nc4ccc5c(cnn5Cc5cccc(F)c5)c4)c3c2)o1 [Compound 148, (S)—N-(1-(3-fluorobenzyl)-1H-indazol-5-yl)-6-(5-(1-(cyclopropyl-methyl-amino)-2-(methylsulfonyl)ethyl)furan-2-yl)quinazolin-4-amine] | 442 | 7 |  |  | 
5 | CN(C)[C@H](CS(C)(=O)=O)c1ccc(-c2ccc3ncnc(Nc4ccc5c(cnn5Cc5cccc(F)c5)c4)c3c2)o1 [Compound 149, (S)—N-(1-(3-fluorobenzyl)-1H-indazol-5-yl)-6-(5-(1-(N,N-dimethylamino)-2-(methylsulfonyl)ethyl)furan-2-yl)quinazolin-4-amine] | 349 | 7.23 |  |  | 
6 | CCN(CC)[C@H](CS(C)(=O)=O)c1ccc(-c2ccc3ncnc(Nc4ccc5c(cnn5Cc5cccc(F)c5)c4)c3c2)o1 [Compound 150] |  |  | 624 | 6.67 | 
7 | CCCN(CCC)[C@H](CS(C)(=O)=O)c1ccc(-c2ccc3ncnc(Nc4ccc5c(cnn5Cc5cccc(F)c5)c4)c3c2)o1 [Compound 151] |  |  | 637 | 6.08 | 
8 | CCN(C)[C@H](CS(C)(=O)=O)c1ccc(-c2ccc3ncnc(Nc4ccc5c(cnn5Cc5cccc(F)c5)c4)c3c2)o1 [Compound 152] |  |  | 601 | 6.54 | 
9 | C=CCN[C@H](CS(C)(=O)=O)c1ccc(-c2ccc3ncnc(Nc4ccc5c(cnn5Cc5cccc(F)c5)c4)c3c2)o1 [Compound 153, (S)—N-(1-(3-fluorobenzyl)-1H-indazol-5-yl)-6-(5-(1-(allyl-amino)-2-(methylsulfonyl)ethyl)furan-2-yl)quinazolin-4-amine] | 857 | 5.87 |  |  | 
10 | C#CCN[C@H](CS(C)(=O)=O)c1ccc(-c2ccc3ncnc(Nc4ccc5c(cnn5Cc5cccc(F)c5)c4)c3c2)o1 [Compound 154, (S)—N-(1-(3-fluorobenzyl)-1H-indazol-5-yl)-6-(5-(1-(propargyl-amino)-2-(methylsulfonyl)ethyl)furan-2-yl)quinazolin-4-amine] | 624 | 4.9 |  |  | 
11 | CON[C@H](CS(C)(=O)=O)c1ccc(-c2ccc3ncnc(Nc4ccc5c(cnn5Cc5cccc(F)c5)c4)c3c2)o1 [Compound 155] |  |  | 480 | 8.59 | 
12 | CON(C)[C@H](CS(C)(=O)=O)c1ccc(-c2ccc3ncnc(Nc4ccc5c(cnn5Cc5cccc(F)c5)c4)c3c2)o1 [Compound 156] |  |  | 428 | 5.52 | 
13 | CS(=O)(=O)CCNCc1ccc(-c2ccc3ncnc(Nc4ccc(OCc5cccc(F)c5)c(Cl)c4)c3c2)o1 [Lapatinib, reference compound] | 643 | 8.47 |  |  | Initial Tumor Volume (mm^3) D0 [1]: 262.3 mm^3; Final Tumor Inhibition Rate (%) D16 [1]: 42%; % T/C D16 [1]: 58%; Relative Tumor Volume D16 [1]: 2.0; Final Tumor Volume (mm^3) D16 [1]: 526.5 mm^3; The Recession/Group [1]: 0; inhibition of growth of human lung cancer Calu-3 (in words) ([1]; xenografts in nude mice): inhibited the growth of human lung cancer Calu-3 significantly
